Experimental data published in patent US20260022143A1, “Cyclic Peptide Inhibitors of IL-23” (JANSSEN PHARMACEUTICA NV, priority 2022, published 2026).
Starred links: 1 amine or outer side, 2 acyl side, 3 side chain; linkers in the order of their positions; H or OH if unused. Positions of bridges follow the written chain, without caps; N, C: chain ends. Non-standard residues stand in square brackets, D forms with d. Residues, ends and D or L forms follow the SMILES beside them. *: point of attachment. Trp(7-(3-AcNH-Ph)) = CC(=O)Nc1cccc(-c2cccc3c(C[C@H](N)C(=O)O)c[nH]c23)c1; X33 = C[N+](C)(C)CCCCc1cn(-c2ccc(C[C@H](N[*:1])C(=O)[*:2])cc2)nn1; X16 = C[N+](C)(C)Cc1cn(-c2ccc(C[C@H](N[*:1])C(=O)[*:2])cc2)nn1; Me3N+(CH2)2O(CH2)2O(CH2)2CO = C[N+](C)(C)CCOCCOCCC(=O)*; Trp(7-Me) = Cc1cccc2c(C[C@H](N)C(=O)O)c[nH]c12; 2Nal = N[C@@H](Cc1ccc2ccccc2c1)C(=O)O; AEF = NCCOc1ccc(C[C@H](N)C(=O)O)cc1; 3Pal = N[C@@H](Cc1cccnc1)C(=O)O; Lys(Me) = CNCCCC[C@H](N)C(=O)O; X7 = COCCOCCOCCOCCOCCOCCC(=O)*; Pen = CC(C)(S)[C@H](N)C(=O)O; Thp = NC1(C(=O)O)CCOCC1; X17 = C[N+]1(CC*)CCOCC1; Sar = CNCC(=O)O

Experiments:
IL-23R = target: T1, IL-23R (Homo sapiens, UniProt Q5VWK5); experiment: IL23R Reporter Assay; format: cell-based; conditions: HEK293 cells containing IL-23R, IL-12RP1 and STAT-inducible firefly luciferase reporter; 10 ng/mL IL-23 (EC90); 5 h at 37° C.; read-out: IL23R Reporter Assay
T1 construct: host or cells: HEK293
T1 sequence (Q5VWK5 24-629): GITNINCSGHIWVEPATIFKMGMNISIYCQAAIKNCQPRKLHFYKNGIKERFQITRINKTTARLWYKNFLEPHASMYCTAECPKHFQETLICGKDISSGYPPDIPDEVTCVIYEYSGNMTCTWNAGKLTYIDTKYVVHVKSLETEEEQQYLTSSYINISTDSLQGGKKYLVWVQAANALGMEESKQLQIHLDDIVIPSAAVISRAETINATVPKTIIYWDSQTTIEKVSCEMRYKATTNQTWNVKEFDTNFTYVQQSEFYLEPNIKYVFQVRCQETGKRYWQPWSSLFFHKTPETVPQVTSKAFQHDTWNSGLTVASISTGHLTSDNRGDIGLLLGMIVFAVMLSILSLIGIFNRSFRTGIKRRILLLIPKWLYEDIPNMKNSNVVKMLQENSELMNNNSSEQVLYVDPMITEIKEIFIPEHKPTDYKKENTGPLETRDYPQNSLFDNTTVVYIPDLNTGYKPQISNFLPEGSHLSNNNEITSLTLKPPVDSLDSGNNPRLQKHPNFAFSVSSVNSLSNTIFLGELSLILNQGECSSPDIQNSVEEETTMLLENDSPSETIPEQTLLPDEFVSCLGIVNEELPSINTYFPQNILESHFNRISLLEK

[1] = Exposed Polar Surface Area (EPSA); format: physicochemical; conditions: SFC on Chirex 3014 column; sample 1 mM DMSO stock; read-out: EPSA
How it was run: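 Polarity measured by SFC on a Chirex 3014 column (35 °C, 4 mL/min) with methanol/ammonium formate in CO2 as gradient eluent. Retention times were normalised to EPSA (Å^2) against eight reference compounds.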

Row | IC50 (IL-23R) | EPSA [1] | Structure (SMILES)
1 | 1.2 nM | 168 A^2 | CC(=O)Nc1cccc(-c2cccc3c(C[C@@H]4NC(=O)[C@H]([C@@H](C)O)NC(=O)[C@H](CC(=O)N(C)C)NC(=O)[C@@H](NC(=O)CCOCCOCC[N+](C)(C)C)C(C)(C)SSC(C)(C)[C@@H](C(=O)N[C@@H](Cc5ccc(OCC[N+]6(C)CCOCC6)cc5)C(=O)N[C@@H](Cc5ccc6ccccc6c5)C(=O)NC5(C(=O)N[C@@H](CCCCN(C)C(C)=O)C(=O)N[C@@H](CC(N)=O)C(=O)N[C@@H](Cc6cccnc6)C(=O)N(C)CC(=O)N(C)C)CCOCC5)NC(=O)[C@H](CCCCN(C)C(C)=O)NC4=O)c[nH]c23)c1 [compound 421, cPEG3aCO-Pen(3)-N(N(me)2)-T-7(3NAcPh)W-K(NMeac)-Pen(3)-MMoEF-2Nal-THP-K(NMeAc)-N-3Pya-Sar-CON(Me)2] ({Me3N+(CH2)2O(CH2)2O(CH2)2CO}-[Pen]D(NMe2)T[Trp(7-(3-AcNH-Ph))][Lys(Me)](Ac)[Pen]Y(X17)[2Nal][Thp][Lys(Me)](Ac)N[3Pal][Sar]-NMe2; disulfide 1-6 (inferred))
2 | 1.8 nM | 192 A^2 | COCCOCCOCCOCCOCCOCCC(=O)N[C@H](CCCNC(=N)N)C(=O)N[C@@H]1C(=O)N[C@@H](CC(N)=O)C(=O)N[C@@H]([C@@H](C)O)C(=O)N[C@@H](Cc2c[nH]c3c(-c4cccc(NC(C)=O)c4)cccc23)C(=O)N[C@@H](CCCCNC(C)=O)C(=O)N[C@H](C(=O)N[C@@H](Cc2ccc(OCCN)cc2)C(=O)N[C@@H](Cc2ccc3ccccc3c2)C(=O)NC2(C(=O)N[C@@H](CCC(=O)O)C(=O)N[C@@H](CC(N)=O)C(=O)N[C@@H](Cc3cccnc3)C(=O)N(C)CC(N)=O)CCOCC2)C(C)(C)SSC1(C)C [compound 422] (X7-[dR][Pen]NT[Trp(7-(3-AcNH-Ph))]K(Ac)[Pen][AEF][2Nal][Thp]EN[3Pal][Sar]-NH2; disulfide 2-7 (inferred))
3 | 2.6 nM | 165 A^2 | CC(=O)NCCCC[C@@H]1NC(=O)[C@H](Cc2c[nH]c3c(C)cccc23)NC(=O)[C@H]([C@@H](C)O)NC(=O)[C@H](CC(N)=O)NC(=O)[C@@H](NC(=O)CCOCCOCC[N+](C)(C)C)C(C)(C)SSC(C)(C)[C@@H](C(=O)N[C@@H](Cc2ccc(-n3cc(CCCC[N+](C)(C)C)nn3)cc2)C(=O)N[C@@H](Cc2ccc3ccccc3c2)C(=O)NC2(C(=O)N[C@@H](CCCCNC(C)=O)C(=O)N[C@@H](CC(N)=O)C(=O)N[C@@H](Cc3cccnc3)C(=O)N(C)CC(N)=O)CCOCC2)NC1=O [compound 424, cPEG3aCO-Pen(3)-N-T-7MeW-K(Ac)-Pen(3)-F(4TzlTMA4)-2Nal-THP-K(Ac)-N-3Pya-Sar-CONH2] ({Me3N+(CH2)2O(CH2)2O(CH2)2CO}-[Pen]NT[Trp(7-Me)]K(Ac)[Pen][X33][2Nal][Thp]K(Ac)N[3Pal][Sar]-NH2; disulfide 1-6)
4 | 1.6 nM | 163 A^2 | CC(=O)NCCCC[C@@H]1NC(=O)[C@H](Cc2c[nH]c3c(C)cccc23)NC(=O)[C@H]([C@@H](C)O)NC(=O)[C@H](CC(N)=O)NC(=O)[C@@H](NC(C)=O)C(C)(C)SSC(C)(C)[C@@H](C(=O)N[C@@H](Cc2ccc(-n3cc(C[N+](C)(C)C)nn3)cc2)C(=O)N[C@@H](Cc2ccc3ccccc3c2)C(=O)NC2(C(=O)N[C@@H](CCCCNC(C)=O)C(=O)N[C@@H](CC(N)=O)C(=O)N[C@@H](Cc3cccnc3)C(=O)N(C)CC(N)=O)CCOCC2)NC1=O [compound 426] (Ac-[Pen]NT[Trp(7-Me)]K(Ac)[Pen][X16][2Nal][Thp]K(Ac)N[3Pal][Sar]-NH2; disulfide 1-6 (inferred))
